Measurements as given in patent publication US20230357179A1, “RAF KINASE INHIBITORS AND METHODS OF USE THEREOF” (Deciphera Pharmaceuticals, LLC, priority 2021, published 2023).

Tests used:
H2405 cells = assay: H2405 cell proliferation assay (1), resazurin, 96-well; assay type: cell-based; conditions: Homo sapiens, NCI-H2405, inhibition of cell proliferation
Summary of the method: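 This is a resazurin viability readout (excitation 540 nm, emission 600 nm) taken 5-6 h after adding 440 μM resazurin solution, giving IC50 values.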

C-Raf kinase = molecular target: T1, C-Raf kinase (Homo sapiens, UniProt P04049, Y340D/Y341D); assay: Biochemical assay for C-Raf.2 (coupled pyruvate kinase/lactate dehydrogenase); conditions: read-out: CRAF.2 IC50
T1 construct: Y340D,; GST (N); purchased Sigma
Procedure: Biochemical Assay for C-Raf.2
(§1) Activity of C-Raf kinase (SEQ. ID NO: 3) was determined spectroscopically using a coupled pyruvate kinase/lactate dehydrogenase assay that continuously monitors the ATP hydrolysis-dependent oxidation of NADH (e.g., Schindler et al., Science, 2000, 289, 1938-1942). Assays were conducted in 384-well plates (25 μL final volume) using 3.84 nM C-Raf (Eurofins), 1.5 units pyruvate kinase, 2.1 units lactate dehydrogenase, 1 mM phosphoenol pyruvate, 0.7 mM NADH, 50 nM MEK (SignalChem), and 1 mM ATP in assay buffer (100 mM Tris, pH 7.5, 15 mM MgCl2, 0.5 mM DTT, 0.1% octyl-glucoside, 0.002% (w/v) BSA, and 0.002% Triton X-100). Inhibition of C-Raf was measured by adding serial diluted test compound (final assay concentration of 1% DMSO). A decrease in absorption at 340 nm was monitored hourly for 4 h at 30° C. on a multi-mode microplate reader (BioTek). The reaction rate was calculated using the 2 to 3 h time frame. The reaction rate at each concentration of compound was converted to percent inhibition using controls (i.e., reaction with no test compound and reaction with a known inhibitor) and IC50 values were calculated by fitting a four-parameter sigmoidal curve to the data using Prism (GraphPad software).

B-Raf kinase = molecular target: T2, B-Raf kinase (Homo sapiens, UniProt P15056); assay: Biochemical assay for B-Raf.2 (coupled pyruvate kinase/lactate dehydrogenase); conditions: read-out: BRAF.2 IC50
T2 construct: GST (N); purchased Sigma
Procedure: Biochemical Assay for B-Raf.2
as §1, with “B-Raf” for “C-Raf”, “2)” for “3)”, “2” for “3.84”, “B-Raf (Sigma),” for “C-Raf (Eurofins),”

A375 cells = assay: A375 cell proliferation assay (2), resazurin, 384-well; assay type: cell-based; conditions: Homo sapiens, A-375, inhibition of cell proliferation, 67-72 h
Procedure: A375 Cell Proliferation Assay (2)
A375 cells (catalog (#CRL-1619) are obtained from the American Type Culture Collect (ATTC, Manassas, VA). Briefly, cells were grown in DMEM High Glucose supplemented with 10% characterized fetal bovine serum (Invitrogen, Carlsbad, CA) and 1% Penicillin/Streptomycin/L-Glutamine at 37° C., 5% CO2, and 95% humidity. Cells are expanded until reaching 70-95% confluency at which point they are sub-cultured or harvested for assay use. Using the Beckman Coulter Echo 650, a serial dilution of test compound is dispensed into a 384-well black clear bottom plate in triplicate. Six hundred twenty-five cells are added per well in 50 μL complete growth medium in the 384-well plate. Plates are incubated for 67-72 h at 37° C., 5% CO2, and 95% humidity. At the end of the incubation, 10 μL of a 440 μM solution of resazurin (Sigma, St. Louis, MO) in PBS is added to each well of the plate and plates are incubated for an additional 3-6 h at 37° C., 5% CO2, and 95% humidity. Plates are read on a Synergy2 or equivalent reader (Biotek, Winooski VT) using an excitation of 540 nm and an emission of 600 nm. Data is analyzed using Prism software (GraphPad, San Diego, CA) to calculate IC50 values.

T1 sequence (P04049 307-648 Y340D/Y341D): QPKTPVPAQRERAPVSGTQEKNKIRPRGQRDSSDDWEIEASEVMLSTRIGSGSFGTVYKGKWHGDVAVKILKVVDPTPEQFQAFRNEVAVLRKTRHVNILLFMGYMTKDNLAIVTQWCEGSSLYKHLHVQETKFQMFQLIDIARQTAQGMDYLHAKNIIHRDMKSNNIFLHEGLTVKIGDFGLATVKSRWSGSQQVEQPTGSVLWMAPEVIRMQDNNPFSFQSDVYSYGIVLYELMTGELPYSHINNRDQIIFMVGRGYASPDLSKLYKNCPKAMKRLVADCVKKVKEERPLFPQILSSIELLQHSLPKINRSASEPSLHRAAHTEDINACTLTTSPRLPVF
T2 sequence (P15056 416-766): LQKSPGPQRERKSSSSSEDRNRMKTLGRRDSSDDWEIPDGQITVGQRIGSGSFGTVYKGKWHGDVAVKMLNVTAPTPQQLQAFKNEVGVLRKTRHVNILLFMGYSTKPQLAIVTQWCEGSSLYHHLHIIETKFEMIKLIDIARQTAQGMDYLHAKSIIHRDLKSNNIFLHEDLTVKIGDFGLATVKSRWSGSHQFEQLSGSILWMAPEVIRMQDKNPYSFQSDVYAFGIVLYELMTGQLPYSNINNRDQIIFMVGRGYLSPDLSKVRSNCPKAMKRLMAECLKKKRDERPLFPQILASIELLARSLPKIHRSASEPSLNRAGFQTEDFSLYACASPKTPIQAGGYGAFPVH

| Structure (SMILES) | IC50 (H2405 cells) | IC50 (C-Raf kinase) | IC50 (B-Raf kinase) | IC50 (A375 cells) |
| --- | --- | --- | --- | --- |
| COC(=O)Nc1cc(-c2cccc(-c3cc(NC(=O)NCCC(C)(C)OC)c(F)cc3C)c2)ccn1 [Example 85] | 100 to 500 nM |  |  |  |
| Cc1cc(F)c(NC(=O)NCCC2(C)CC2)cc1-c1cc(OCCO)nc(-c2ccnc3[nH]ncc23)c1 [Example 87] | 100 to 500 nM |  |  |  |
| Cc1cc(F)c(NC(=O)N[C@@H]2CC[C@H](F)C2)cc1-c1cc(OCCO)nc(-c2ccnc3[nH]ncc23)c1 [Example 88] | 1000 to 10000 nM |  |  |  |
| Cc1cc(F)c(NC(=O)NCC[C@@H]2CCO2)cc1-c1cc(OCCO)nc(-c2ccnc3[nH]ncc23)c1 [Example 89] | 1000 to 10000 nM |  |  |  |
| COC(C)(C)CCNC(=O)Nc1cc(-c2cc(OCCO)nc(-c3ccnc4[nH]ccc34)c2)c(C)cc1F [Example 90] | 500 to 1000 nM |  |  |  |
| COC(C)(C)CCNC(=O)Nc1cc(-c2cc(OCCO)nc(-c3ccnc4[nH]ncc34)c2)c(C)cc1F [Example 91] | 100 to 500 nM |  |  |  |
| Cc1cc(F)c(NC(=O)N2CCC(C)(C#N)CC2)cc1-c1cc(OCCO)nc(-c2ccnc3[nH]ncc23)c1 [Example 92] | 1000 to 10000 nM |  |  |  |
| CNC(=O)c1cc(-c2cc(-c3cc(NC(=O)N4CC[C@H](C(F)(F)F)C4)ccc3C)ccn2)ccn1 [Example 215] |  | ≤ 100 nM | 100 to 500 nM |  |
| CNC(=O)c1cc(-c2cncc(-c3cc(NC(=O)N4CC[C@H](C(F)(F)F)C4)ccc3C)c2)ncn1 [Example 220] | 500 to 1000 nM | 100 to 500 nM | 100 to 500 nM | 1000 to 10000 nM |
| COC(=O)Nc1cc(-c2cncc(-c3cc(NC(=O)N4CC[C@H](C(F)(F)F)C4)ccc3C)c2)ncn1 [Example 224] | 100 to 500 nM | ≤ 100 nM | ≤ 100 nM |  |
| CNC(=O)c1cc(-c2cc(-c3cc(NC(=O)N4CC[C@H](C(C)C)C4)ccc3C)ccn2)ccn1 [Example 225] | 100 to 500 nM | 100 to 500 nM | 100 to 500 nM | 100 to 500 nM |
| CNC(=O)c1cc(-c2cncc(-c3cc(NC(=O)N4CC[C@H](C(C)C)C4)ccc3C)c2)ncn1 [Example 226] | 500 to 1000 nM | 100 to 500 nM | 500 to 1000 nM | 500 to 1000 nM |
| Cc1ccc(NC(=O)N2CC[C@H](C)C2)cc1-c1cncc(-c2cc(NC(=O)C3CC3)ncn2)c1 [Example 227] |  | ≤ 100 nM | ≤ 100 nM | 1000 to 10000 nM |
| CNC(=O)c1cc(-c2cncc(-c3cc(NC(=O)N4CC[C@H](C(F)(F)F)C4)ccc3C)c2)ccn1 [Example 228] |  | 100 to 500 nM | 100 to 500 nM | 1000 to 10000 nM |
| CNC(=O)c1cc(-c2cncc(-c3cc(NC(=O)N4CC[C@H](C(C)C)C4)ccc3C)c2)ccn1 [Example 229] |  | ≤ 100 nM | 100 to 500 nM | 100 to 500 nM |
